Data reported in PMC10146426, “Naturally Occurring Chalcones with Aggregation-Induced Emission Enhancement Characteristics” (Molecules, 2023).
Read-outs that look alike come from different tables or passages of the source.

Columns and labels:
[1] = DPPH radical-scavenging activity assay; details: for DPPH Radical Scavenging (%) after 30 min / DPPH Radical Scavenging (%) after 60 min: mean ± SD
Description: 2,2-Diphenylpicrylhydrazyl (DPPH) was purchased from Sigma-Aldrich (Steinheim, Germany). DPPH radical-scavenging activity was determined according to the method described by Brand-Williams et al. using (+)-catechin (Sigma-Aldrich, Steinheim, Germany) as the positive control. The chalcone samples were previously dissolved in DMSO and MeOH at the molar concentration of 2 × 10^–3 M. The positive control sample was dissolved in DMSO at the same molar concentration. The DPPH stock solution was diluted 10× with methanol to obtain the concentration of 1 × 10^–4 M. The measurements: 70 μL of the sample was added to 4 mL of the DPPH solution, and the samples were left for 30 or 60 min at room temperature in the dark. The absorbance was recorded at 517 nm by s Varian Cary 50 spectrophotometer. The control was prepared as above without any sample.
DPPH free-radical scavenging activity was calculated using the following Formula (2):(2) Scavenging activity [%]=[Absorbance of control−Absorbance of test sample]/Absorbance control×100 where the absorbance of control is the absorbance of DPPH radicals in the absence of compounds, and the absorbance of the test sample is the absorbance in the presence of the studied compound.

[2] = target: T1, Acetylcholinesterase (AChE, E.C. 3.1.1.7, from human erythrocytes) (Homo sapiens, UniProt P22303); test: AChE inhibition (Ellman method); format: biochemical
T1 construct: Acetylcholinesterase (AChE, E.C. 3.1.1.7, from human erythrocytes); purchased Sigma-Aldrich (Steinheim, Germany); host or cells: human erythrocytes (natural source)
Description: (§1) The inhibitory activities against AChE and BuChE of the prepared compounds were performed by means of the method previously developed by Ellman et al. using neostigmine as the reference compound [68]. This is based on the reaction of released thiocholine to give a coloured product with a chromogenic reagent. Seven different concentrations of the compounds in the range 10^−9–10^−3 M were measured at 412 nm. All the assays were performed in the 0.1 M NaH2PO4/Na2HPO4 buffer (pH = 8) using the Varian Cary 50 spectrophotometer. 5,5′-Dithio-bis(2-nitrobenzoic acid) (DTNB) was used to measure the anti-AChE activity. […] Briefly, 140 µL of 0.1 mM sodium phosphate buffer (pH 8.0), 20 µL of DTNB, 20 µL of the assay solution and 20 µL of the AChE/BuChE solution were added and incubated for 15 min at 25 °C. The reaction was then initiated by adding 10 µL of acetylthiocholine iodide or butylthiocholine iodide. Yellow anion (2-nitro-5-thiobenzoic acid) formation was recorded at 412 nm for 10 min. It was determined by preparing an identical solution of the enzyme in the absence of tested compounds (as the control). Control and inhibitor readings were corrected with a blank read. All operations were repeated three times. The inhibition properties are reported as the IC50 values, which were determined graphically from the inhibition curves of log inhibitor concentration vs. the percentage of inhibition. The IC50 values represent the concentration of the inhibitor required for 50% inhibition of the enzyme.

[3] = target: T2, butyrylcholinesterase (BuChE, E.C. 3.1.1.8, from equine serum) (Equus caballus, UniProt P81908); test: BuChE inhibition (Ellman method); format: biochemical
T2 construct: butyrylcholinesterase (BuChE, E.C. 3.1.1.8, from equine serum); purchased Sigma-Aldrich (Steinheim, Germany); host or cells: equine serum (natural source)
Description: as §1

[4] = samples dissolved in DMSO (stock 2 × 10^−3 M), three experiments
[5] = samples dissolved in MeOH (stock 2 × 10^−3 M)
[6] = pH 8 phosphate buffer, 25 °C, n = 9, read-out: AChE IC50 Mean ± SD
[7] = pH 8 phosphate buffer, 25 °C, n = 9, read-out: BuChE IC50 Mean ± SD

T1 sequence (P22303 32-617 isoform P22303-2 limits assumed): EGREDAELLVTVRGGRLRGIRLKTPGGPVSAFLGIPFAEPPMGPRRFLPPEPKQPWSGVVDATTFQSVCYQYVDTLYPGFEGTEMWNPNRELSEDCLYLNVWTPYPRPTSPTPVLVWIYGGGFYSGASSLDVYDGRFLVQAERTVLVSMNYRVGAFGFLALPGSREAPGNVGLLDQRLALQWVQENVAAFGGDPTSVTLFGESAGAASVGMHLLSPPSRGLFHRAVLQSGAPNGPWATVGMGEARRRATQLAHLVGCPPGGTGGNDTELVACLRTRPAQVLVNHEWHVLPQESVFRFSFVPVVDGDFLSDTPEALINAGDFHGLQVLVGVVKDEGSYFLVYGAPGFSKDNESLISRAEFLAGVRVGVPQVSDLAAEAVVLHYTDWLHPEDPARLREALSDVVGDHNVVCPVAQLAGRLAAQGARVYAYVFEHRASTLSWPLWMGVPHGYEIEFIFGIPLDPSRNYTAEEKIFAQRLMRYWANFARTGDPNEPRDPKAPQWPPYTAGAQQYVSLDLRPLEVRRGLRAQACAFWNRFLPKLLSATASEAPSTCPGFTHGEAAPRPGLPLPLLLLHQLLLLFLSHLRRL
T2 sequence (P81908 whole entry): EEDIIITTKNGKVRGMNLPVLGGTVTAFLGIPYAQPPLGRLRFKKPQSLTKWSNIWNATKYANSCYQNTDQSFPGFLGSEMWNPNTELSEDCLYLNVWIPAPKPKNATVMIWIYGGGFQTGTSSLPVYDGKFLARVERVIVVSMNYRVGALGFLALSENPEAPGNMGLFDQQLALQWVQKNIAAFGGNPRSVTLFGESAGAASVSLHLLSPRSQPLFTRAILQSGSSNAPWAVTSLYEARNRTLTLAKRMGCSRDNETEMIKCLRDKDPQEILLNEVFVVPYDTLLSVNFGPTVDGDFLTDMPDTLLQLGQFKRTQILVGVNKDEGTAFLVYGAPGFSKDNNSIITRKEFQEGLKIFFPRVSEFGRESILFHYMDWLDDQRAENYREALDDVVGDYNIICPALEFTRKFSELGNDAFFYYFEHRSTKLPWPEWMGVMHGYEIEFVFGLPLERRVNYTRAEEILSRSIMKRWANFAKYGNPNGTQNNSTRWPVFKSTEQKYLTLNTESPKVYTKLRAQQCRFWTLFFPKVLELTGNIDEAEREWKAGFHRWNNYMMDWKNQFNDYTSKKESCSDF

| Structure (SMILES) | DPPH Radical Scavenging (%) after 30 min [1, 4] [%] | DPPH Radical Scavenging (%) after 30 min [1, 5] [%] | DPPH Radical Scavenging (%) after 60 min [1, 5] [%] | IC50 [2] [µM] | IC50 [3] [µM] | IC50 [2, 6] [µM] | inhibitory properties towards AChE ([2]; result in words) | IC50 [3, 7] [µM] | DPPH Radical Scavenging (%) after 30 min ([1]; samples dissolved in DMSO (stock 2 × 10^−3 M), three experiments, listed as licochalcone A) | DPPH Radical Scavenging (%) after 60 min ([1]; samples dissolved in MeOH (stock 2 × 10^−3 M), listed as licochalcone A) | DPPH radical scavenging (%) ([1]; solvent and time not stated) |
| --- | --- | --- | --- | --- | --- | --- | --- | --- | --- | --- | --- |
| Oc1cc(O)c2c(c1)O[C@H](c1ccc(O)c(O)c1)[C@@H](O)C2 [(+)-catechin, reference compound] | 94.14 ± 0.44 |  |  |  |  |  |  |  |  |  |  |
| COc1cc(O)cc(O)c1C(=O)/C=C/c1ccccc1 [CA, cardamonin] | 2.09 ± 0.05 | 0.79 ± 0.07 | 1.33 ± 0.14 | 67.87 ± 0.01 | 75.29 ± 0.41 |  |  |  |  |  |  |
| COc1ccc(/C=C/C(=O)c2c(O)cc(OC)cc2OC)cc1 [HCH, 2′-hydroxy-4,4′,6′-trimethoxychalcone] | 2.09 ± 0.03 | 0.30 ± 0.06 | 0.35 ± 0.05 |  |  | > 100 | did not show any inhibitory properties | 76.5 ± 3.03 |  |  |  |
| CC(C)=CCc1c(O)ccc(C(=O)/C=C/c2ccc(O)cc2)c1O [IBC, isobavachalcone] | 2.36 ± 0.07 | 0.61 ± 0.01 | 1.03 ± 0.06 |  |  | 35.48 ± 0.01 |  | 43.05 ± 0.16 |  |  |  |
| C=CC(C)(C)c1cc(/C=C/C(=O)c2ccc(O)cc2)c(OC)cc1O [LIC, licochalcone A] | 29.24 ± 0.70 | 26.50 ± 0.92 | 29.60 ± 0.98 | 23.41 ± 0.02 | 42.28 ± 0.06 |  |  |  | ~ 29% | ~ 29% | 29 |
| CN(C)C(=O)Oc1cccc([N+](C)(C)C)c1 [Neostygmine, neostigmine bromide, reference compound] |  |  |  |  | 0.03 ± 0.01 |  |  |  |  |  |  |
| COc1cc(O)c(CC=C(C)C)c(O)c1C(=O)/C=C/c1ccc(O)cc1 [XN, xanthohumol] | 7.99 ± 0.05 | 4.34 ± 0.05 | 6.72 ± 0.30 |  |  | 40.81 ± 0.04 |  | 65.79 ± 0.34 |  |  |  |
